# Measured values published in patent US5698522A, “6-position modified decapeptide LHRH antagonists” (Abbott Laboratories, priority 1995, dated 1997).
# Where a SMILES comes first, the peptide text is derived from it. Side-chain parts run from the residue outwards. [ ]: non-standard residue; d: D form. The star is where a group is joined. ξ: configuration not given here. ξTetrahydrofuran2carbonyl = O=C(C1CCCO1)*; dPhe(4-Cl) = N[C@H](Cc1ccc(Cl)cc1)C(=O)O; d2Nal = N[C@H](Cc1ccc2ccccc2c1)C(=O)O; Lys(iPr) = CC(C)NCCCC[C@H](N)C(=O)O; NMeY = CN[C@@H](Cc1ccc(O)cc1)C(=O)O; Thiophene2carbonyl = O=C(c1cccs1)*; d3Pal = N[C@H](Cc1cccnc1)C(=O)O; Salicyloyl = O=C(c1ccccc1O)*; Nicotinoyl = O=C(c1cccnc1)*; X1 = O=C(c1cc2ccccc2cc1O)*; 2Furoyl = O=C(c1ccco1)*; Ahx = NCCCCCC(=O)O; GABA = NCCCC(=O)O; azaGly = NNC(=O)O; βAla = NCCC(=O)O; Sar = CNCC(=O)O
# Biological target: T1, LHRH receptor (Rattus norvegicus, UniProt P30969)
# T1 construct: endogenous in cells
# T1 sequence (P30969 1-327): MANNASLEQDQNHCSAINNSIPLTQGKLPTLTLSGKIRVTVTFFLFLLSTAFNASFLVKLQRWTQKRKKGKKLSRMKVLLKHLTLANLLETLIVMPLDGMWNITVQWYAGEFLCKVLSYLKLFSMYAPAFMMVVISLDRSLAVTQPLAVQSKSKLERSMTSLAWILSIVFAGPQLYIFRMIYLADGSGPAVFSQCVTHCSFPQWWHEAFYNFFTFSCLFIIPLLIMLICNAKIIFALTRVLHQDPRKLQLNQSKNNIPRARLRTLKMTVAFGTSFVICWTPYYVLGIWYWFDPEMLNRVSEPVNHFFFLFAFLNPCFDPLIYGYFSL
# Test: in vitro LHRH antagonist potency (pA2) against the agonist leuprolide
# Type: cell-based
# Settings: negative logarithm of the antagonist concentration which shifts the response curve produced by the agonist leuprolide to two-fold higher concentration
# Method: Representative compounds of the present invention were evaluated in in vitro tests for receptor binding (pKI) and for LHRH antagonist potency (pA2). The tests employed the methods detailed in F. Haviv, et al., J. Med. Chem., 32: 2340-2344 (1989). The receptor binding affinities (pKI) are the negative logarithms of the equilibtirum dissociation constants (pA2) are the negative logarithms of the concentration of antagonist which shift the response curve roduced by the agonist leuprolide to two-fold higher concentration. (Leuprolide is the LHRH agonist having the structure 5-oxo-Pro^1 -His^2 -Trp^3 -Ser^4 -Tyr^5 -D-Leu^6 -Leu^7 -Arg^8 -Pro^9 -NHEt and is disclosed and claimed in U.S. Pat. No. 4,005,063.) Typically pA2 values of 9.5 or greater are indicative of good LHRH antagonist potency.
row,SMILES,Kb [nM]
1,"CC(=O)N[C@H](Cc1ccc2ccccc2c1)C(=O)N[C@H](Cc1ccc(Cl)cc1)C(=O)N[C@H](Cc1cccnc1)C(=O)N[C@@H](CO)C(=O)N(C)[C@@H](Cc1ccc(O)cc1)C(=O)N[C@H](CCCCNC(=O)CNC(=O)c1cccnc1)C(=O)N[C@@H](CC(C)C)C(=O)N[C@@H](CCCCNC(C)C)C(=O)N1CCC[C@H]1C(=O)N[C@H](C)C(N)=O [Example 1, NAc-D2Nal^1 -D4ClPhe^2 -D3Pal^3 -Ser^4 -NMeTyr^5 -DLys(N-epsilon-Gly-Nicotinyl)^6 -Leu^7 -Lys(N-epsilon-Isopropyl)^8 -Pro^9 -DAla^10 NH2] (Ac-[d2Nal][dPhe(4-Cl)][d3Pal]S[NMeY][dK]([Gly-Nicotinoyl])L[Lys(iPr)]P[dA]-NH2)",0.00355
2,"CC(=O)N[C@H](Cc1ccc2ccccc2c1)C(=O)N[C@H](Cc1ccc(Cl)cc1)C(=O)N[C@H](Cc1cccnc1)C(=O)N[C@@H](CO)C(=O)N(C)[C@@H](Cc1ccc(O)cc1)C(=O)N[C@H](CCCCNC(=O)NNC(=O)c1ccco1)C(=O)N[C@@H](CC(C)C)C(=O)N[C@@H](CCCCNC(C)C)C(=O)N1CCC[C@H]1C(=O)N[C@H](C)C(N)=O [Example 2, NAc-D2Nal^1 -D4ClPhe^2 -D3Pal^3 -Ser^4 -NMeTyr^5 -DLys(N-epsilon-Azagly-2-Furoyl)^6 -Leu^7 -Lys(N-epsilon-Isopropyl)^8 -Pro^9 -DAla^10 NH2] (Ac-[d2Nal][dPhe(4-Cl)][d3Pal]S[NMeY][dK]([azaGly-2Furoyl])L[Lys(iPr)]P[dA]-NH2)",0.00141
3,"CC(=O)N[C@H](Cc1ccc2ccccc2c1)C(=O)N[C@H](Cc1ccc(Cl)cc1)C(=O)N[C@H](Cc1cccnc1)C(=O)N[C@@H](CO)C(=O)N(C)[C@@H](Cc1ccc(O)cc1)C(=O)N[C@H](CCCCNC(=O)NNC(=O)c1cccnc1)C(=O)N[C@@H](CC(C)C)C(=O)N[C@@H](CCCCNC(C)C)C(=O)N1CCC[C@H]1C(=O)N[C@H](C)C(N)=O [Example 3, NAc-D2Nal^1 -D4ClPhe^2 -D3Pal^3 -Ser^4 -NMeTyr^5 -DLys(N-epsilon-Azagly-Nicotinyl)^6 -Leu^7 -Lys(N-epsilon-Isopropyl)^8 -Pro^9 -DAla^10 NH2] (Ac-[d2Nal][dPhe(4-Cl)][d3Pal]S[NMeY][dK]([azaGly-Nicotinoyl])L[Lys(iPr)]P[dA]-NH2)",0.0049
4,CC(=O)N[C@H](Cc1ccc2ccccc2c1)C(=O)N[C@H](Cc1ccc(Cl)cc1)C(=O)N[C@H](Cc1cccnc1)C(=O)N[C@@H](CO)C(=O)N(C)[C@@H](Cc1ccc(O)cc1)C(=O)N[C@H](CCCCNC(=O)CCNC(=O)c1cccnc1)C(=O)N[C@@H](CC(C)C)C(=O)N[C@@H](CCCCNC(C)C)C(=O)N1CCC[C@H]1C(=O)N[C@H](C)C(N)=O [Example 4a] (Ac-[d2Nal][dPhe(4-Cl)][d3Pal]S[NMeY][dK]([βAla-Nicotinoyl])L[Lys(iPr)]P[dA]-NH2),0.00562
5,"CC(=O)N[C@H](Cc1ccc2ccccc2c1)C(=O)N[C@H](Cc1ccc(Cl)cc1)C(=O)N[C@H](Cc1cccnc1)C(=O)N[C@@H](CO)C(=O)N(C)[C@@H](Cc1ccc(O)cc1)C(=O)N[C@H](CCCCNC(=O)CCCNC(=O)c1cccnc1)C(=O)N[C@@H](CC(C)C)C(=O)N[C@@H](CCCCNC(C)C)C(=O)N1CCC[C@H]1C(=O)N[C@H](C)C(N)=O [Example 4b, NAc-D2Nal^1 -D4ClPhe^2 -D3Pal^3 -Ser^4 -NMeTyr^5 -DLys[N-epsilon-(gamma-Aminobutyryl)Nicotinyl]^6 -Leu^7 -Lys(N-epsilon-Isopropyl)^8 -Pro^9 -DAla^10 NH2] (Ac-[d2Nal][dPhe(4-Cl)][d3Pal]S[NMeY][dK]([GABA-Nicotinoyl])L[Lys(iPr)]P[dA]-NH2)",0.0234
6,"CC(=O)N[C@H](Cc1ccc2ccccc2c1)C(=O)N[C@H](Cc1ccc(Cl)cc1)C(=O)N[C@H](Cc1cccnc1)C(=O)N[C@@H](CO)C(=O)N(C)[C@@H](Cc1ccc(O)cc1)C(=O)N[C@H](CCCCNC(=O)[C@@H](CO)NC(=O)c1cccnc1)C(=O)N[C@@H](CC(C)C)C(=O)N[C@@H](CCCCNC(C)C)C(=O)N1CCC[C@H]1C(=O)N[C@H](C)C(N)=O [Example 4c, NAc-D2Nal^1 -D4ClPhe^2 -D3Pal^3 -Ser^4 -NMeTyr^5 -DLys[N-epsilon-DSer-Nicotinyl]^6 -Leu^7 -Lys(N-epsilon-Isopropyl)^8 -Pro^9 -DAla^10 NH2] (Ac-[d2Nal][dPhe(4-Cl)][d3Pal]S[NMeY][dK]([dS-Nicotinoyl])L[Lys(iPr)]P[dA]-NH2)",0.0158
7,"CC(=O)N[C@H](Cc1ccc2ccccc2c1)C(=O)N[C@H](Cc1ccc(Cl)cc1)C(=O)N[C@H](Cc1cccnc1)C(=O)N[C@@H](CO)C(=O)N(C)[C@@H](Cc1ccc(O)cc1)C(=O)N[C@H](CCCCNC(=O)CN(C)C(=O)c1cccnc1)C(=O)N[C@@H](CC(C)C)C(=O)N[C@@H](CCCCNC(C)C)C(=O)N1CCC[C@H]1C(=O)N[C@H](C)C(N)=O [Example 4d, NAc-D2Nal^1 -D4ClPhe^2 -D3Pal^3 -Ser^4 -NMeTyr^5 -DLys(N-epsilon-Sar-Nicotinyl)^6 -Leu^7 -Lys(N-epsilon-Isopropyl)^8 -Pro^9 -DAla^10 NH2] (Ac-[d2Nal][dPhe(4-Cl)][d3Pal]S[NMeY][dK]([Sar-Nicotinoyl])L[Lys(iPr)]P[dA]-NH2)",0.0138
8,"CC(=O)N[C@H](Cc1ccc2ccccc2c1)C(=O)N[C@H](Cc1ccc(Cl)cc1)C(=O)N[C@H](Cc1cccnc1)C(=O)N[C@@H](CO)C(=O)N(C)[C@@H](Cc1ccc(O)cc1)C(=O)N[C@H](CCCCNC(=O)CCCCCNC(=O)c1cccnc1)C(=O)N[C@@H](CC(C)C)C(=O)N[C@@H](CCCCNC(C)C)C(=O)N1CCC[C@H]1C(=O)N[C@H](C)C(N)=O [Example 4e, NAc-D2Nal^1 -D4ClPhe^2 -D3Pal^3 -Ser^4 -NMeTyr^5 -DLys[N-epsilon-(N-epsilon-aminocaproyl)-Nicotinyl]^6 -Leu^7 -Lys(N-epsilon-Isopropyl)^8 -Pro^9 -DAla^10 NH2] (Ac-[d2Nal][dPhe(4-Cl)][d3Pal]S[NMeY][dK]([Ahx-Nicotinoyl])L[Lys(iPr)]P[dA]-NH2)",0.0339
9,"CC(=O)N[C@H](Cc1ccc2ccccc2c1)C(=O)N[C@H](Cc1ccc(Cl)cc1)C(=O)N[C@H](Cc1cccnc1)C(=O)N[C@@H](CO)C(=O)N(C)[C@@H](Cc1ccc(O)cc1)C(=O)N[C@H](CCCCNC(=O)NNC(=O)C1CCCO1)C(=O)N[C@@H](CC(C)C)C(=O)N[C@@H](CCCCNC(C)C)C(=O)N1CCC[C@H]1C(=O)N[C@H](C)C(N)=O (stereo partly drawn) [Example 5a, NAc-D2Nal^1 -D4ClPhe^2 -D3Pal^3 -Ser^4 -NMeTyr^5 -DLys(N-epsilon-Azagly-2-Tetrahydrofuroyl)^6 -Leu^7 -Lys(N-epsilon-Isopropyl)^8 -Pro^9 -DAla^10 NH2] (Ac-[d2Nal][dPhe(4-Cl)][d3Pal]S[NMeY][dK]([azaGly-ξTetrahydrofuran2carbonyl])L[Lys(iPr)]P[dA]-NH2)",0.0191
10,"CC(=O)N[C@H](Cc1ccc2ccccc2c1)C(=O)N[C@H](Cc1ccc(Cl)cc1)C(=O)N[C@H](Cc1cccnc1)C(=O)N[C@@H](CO)C(=O)N(C)[C@@H](Cc1ccc(O)cc1)C(=O)N[C@H](CCCCNC(=O)NNC(=O)c1cccs1)C(=O)N[C@@H](CC(C)C)C(=O)N[C@@H](CCCCNC(C)C)C(=O)N1CCC[C@H]1C(=O)N[C@H](C)C(N)=O [Example 5b, NAc-D2Nal^1 -D4ClPhe^2 -D3Pal^3 -Ser^4 -NMeTyr^5 -DLys(N-epsilon-Azagly-2-Thienylcarbonyl)^6 -Leu^7 -Lys(N-epsilon-Isopropyl)^8 -Pro^9 -DAla^10 NH2] (Ac-[d2Nal][dPhe(4-Cl)][d3Pal]S[NMeY][dK]([azaGly-Thiophene2carbonyl])L[Lys(iPr)]P[dA]-NH2)",0.00295
11,"CC(=O)N[C@H](Cc1ccc2ccccc2c1)C(=O)N[C@H](Cc1ccc(Cl)cc1)C(=O)N[C@H](Cc1cccnc1)C(=O)N[C@@H](CO)C(=O)N(C)[C@@H](Cc1ccc(O)cc1)C(=O)N[C@H](CCCCNC(=O)NNC(=O)c1ccccc1O)C(=O)N[C@@H](CC(C)C)C(=O)N[C@@H](CCCCNC(C)C)C(=O)N1CCC[C@H]1C(=O)N[C@H](C)C(N)=O [Example 5c, NAc-D2Nal^1 -D4ClPhe^2 -D3Pal^3 -Ser^4 -NMeTyr^5 -DLys(N-epsilon-Azagly-Salicyl)^6 -Leu^7 -Lys(N-epsilon-Isopropyl)^8 -Pro^9 -DAla^10 NH2] (Ac-[d2Nal][dPhe(4-Cl)][d3Pal]S[NMeY][dK]([azaGly-Salicyloyl])L[Lys(iPr)]P[dA]-NH2)",0.0132
12,"CC(=O)N[C@H](Cc1ccc2ccccc2c1)C(=O)N[C@H](Cc1ccc(Cl)cc1)C(=O)N[C@H](Cc1cccnc1)C(=O)N[C@@H](CO)C(=O)N(C)[C@@H](Cc1ccc(O)cc1)C(=O)N[C@H](CCCCNC(=O)NNC(=O)c1cc2ccccc2cc1O)C(=O)N[C@@H](CC(C)C)C(=O)N[C@@H](CCCCNC(C)C)C(=O)N1CCC[C@H]1C(=O)N[C@H](C)C(N)=O [Example 5d, NAc-D2Nal^1 -D4ClPhe^2 -D3Pal^3 -Ser^4 -NMeTyr^5 -DLys[N-epsilon-Azagly-(3-OH-2-Naphthoyl)]^6 -Leu^7 -Lys(N-epsilon-Isopropyl)^8 -Pro^9 -DAla^10 NH2] (Ac-[d2Nal][dPhe(4-Cl)][d3Pal]S[NMeY][dK]([azaGly-X1])L[Lys(iPr)]P[dA]-NH2)",0.055
